Patent US9796679B2, “Type 4 prepilin peptidase inhibitors and methods of use” (priority 2014, dated 2017)

Biological target: T1, TcpJ (Vibrio cholerae serotype O1, UniProt A5F385)
T1 construct: made in house; host or cells: E. coli JM109 carrying pCL9 (total membrane fraction)
T1 sequence (A5F385 1-253): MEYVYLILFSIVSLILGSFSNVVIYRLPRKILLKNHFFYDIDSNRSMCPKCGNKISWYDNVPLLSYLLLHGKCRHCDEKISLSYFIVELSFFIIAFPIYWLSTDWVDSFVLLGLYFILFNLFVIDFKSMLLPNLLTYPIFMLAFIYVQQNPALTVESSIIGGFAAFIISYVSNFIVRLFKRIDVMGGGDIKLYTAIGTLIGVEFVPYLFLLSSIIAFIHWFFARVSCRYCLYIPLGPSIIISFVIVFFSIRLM
Test: In vitro TcpA prepilin cleavage assay with inhibitors
Assay type: biochemical
Conditions: compared to compounds where R is methyl
Protocol: By way of illustration, the effect of inhibitors on the peptidase activity of TcpJ can be determined by incubating the inhibitor with an amount of membrane preparation known to contain 1 unit of activity of TcpJ for 30 minutes at room temperature. The TcpJ/inhibitor mixture is then tested for peptidase activity. Amounts of cleaved TcpA prepilin can be quantitated and applied to the formula: % cleavage=(amount of cleaved TcpA in inhibition assay/amount of cleaved TcpA in no inhibitor control assay)×100.
Membrane preparations were prepared according to a modified cell fractionation protocol (Pfau (1998) J. Bact. 180(17):4724-33). Overnight cultures were placed on ice for 20 minutes then pelleted at 5000×g for 10 minutes. The cell pellet was resuspended in 1 ml 200 mM Tris pH 8.0 to which 1 ml 50 mM Tris pH 8.0, 1 M sucrose, 2 ml water, 20 μl 0.5 M EDTA, and 20 μl lysozyme (10 mg/ml) were added. The cell suspension was allowed to incubate on ice for 30 minutes. Then, 100 μl 1 M MgSO4 was added and the suspension was pelleted at 5000×g for 10 minutes. […]
A membrane preparation from the E. coli strain K38 p3Z-A, pGP1-2, which was determined to contain 0.2 μg TcpA prepilin/μl, was the source of prepilin in the in vitro TcpJ proteases assay instead of purified prepilin. […]

Compound: Nc1cc[n+](Cc2ccc(-c3ccc(C[n+]4ccc(N)c5ccccc54)cc3)cc2)c2ccccc12 [TC-7]
- IC50 value: lower IC50 value compared to compounds where R is methyl
